Biological target: T1, human Plk4 kinase domain (aa 2-275) (Homo sapiens, UniProt O00444)
T1 construct: purified 6×His-tagged human Plk4 kinase domain (aa 2-275); 6xHis; made in house; host or cells: E. coli
T1 sequence (O00444 2-275): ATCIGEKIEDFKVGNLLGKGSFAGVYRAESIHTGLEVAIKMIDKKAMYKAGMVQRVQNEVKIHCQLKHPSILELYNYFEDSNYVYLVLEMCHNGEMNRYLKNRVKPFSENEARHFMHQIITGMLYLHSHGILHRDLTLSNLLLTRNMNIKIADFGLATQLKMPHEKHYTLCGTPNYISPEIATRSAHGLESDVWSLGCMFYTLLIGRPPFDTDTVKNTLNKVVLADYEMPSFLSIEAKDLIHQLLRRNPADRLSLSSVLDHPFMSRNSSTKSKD
Test: Plk4 kinase assay (ADP-Glo)
Type: biochemical
Conditions: Table 1
Protocol: Kinase assays. […] The Plk4 concentration in the final reaction was 2.5-10 nM with a final pH of 8.0. […] Reactions were allowed to proceed for 4-16 hours at 25° C. Detection was performed using ADP-Glo reagent (Promega), following manufacturer's instructions. Luminescence was measured on an Infinite M1000 plate reader (Tecan). Data were fit using Prism (GraphPad) and Kis were calculated from IC50 data using the Cheng and Prusoff equation (37) or the Copeland formalism for tight-binding inhibitors (38).

SMILES | IC50
Cc1cc(Nc2nc(Sc3ccc(NC(=O)C4CC4)cc3)nc3c2CCC3)n[nH]1 | > 1 µM
COc1c(Nc2cc(C)[nH]n2)nc(Sc2ccc(NC(=O)C3CCCC3)cc2)nc1N1CCOCC1 | < 1 µM
CCN(CC)c1nc(Sc2ccc(NC(=O)C3CCCC3)cc2)nc(Nc2cc(C)[nH]n2)c1OC | 0.1 to 1 µM
COc1c(Nc2cc(C)[nH]n2)nc(Sc2ccc(NC(=O)C3CCCC3)cc2)nc1N(C)C | < 1 µM
CCN(C)c1nc(Sc2ccc(NC(=O)C3CCCC3)cc2)nc(Nc2cc(C)[nH]n2)c1OC | 0.1 to 1 µM
COc1c(Nc2cc(C)[nH]n2)nc(Sc2ccc(NC(=O)C3CCCC3)cc2)nc1N1CCCCC1 | 0.1 to 1 µM
COCCN(C)c1nc(Sc2ccc(NC(=O)C3CCCC3)cc2)nc(Nc2cc(C)[nH]n2)c1OC | 0.1 to 1 µM
COCCNc1nc(Sc2ccc(NC(=O)C3CCCC3)cc2)nc(Nc2cc(C)[nH]n2)c1OC | < 1 µM
COc1c(Nc2cc(C)[nH]n2)nc(Sc2ccc(NC(C)=O)cc2)nc1N1CCN(CCN(C)C)CC1C (stereo not shown) | > 1 µM
COc1c(Nc2cc(C)[nH]n2)nc(Sc2ccc(NC(C)=O)cc2)nc1N1CCN(CCN(C)c2ccccc2)CC1 | < 1 µM
COc1c(Nc2cc(C)[nH]n2)nc(Sc2ccc(NC(C)=O)cc2)nc1N1CCN(CCN2C3CCCC2CC3)CC1 | < 1 µM
COc1c(Nc2cc(C)[nH]n2)nc(Sc2ccc([S+](C)[O-])cc2)nc1N1CCN(CCN(C)C)CC1 (stereo not shown) | < 1 µM
COc1c(Nc2cc(C)[nH]n2)nc(Sc2ccc(NC(C)=O)cc2)nc1N1CC2CCC(C1)N2CCN1CCCCCCC1 | < 1 µM
COc1c(Nc2cc(C)[nH]n2)nc(Sc2ccc(NC(C)=O)cc2)nc1N1CCN(CCS(C)(=O)=O)CC1 | < 1 µM
COc1c(Nc2cc(C)[nH]n2)nc(Sc2ccc(NC(C)=O)cc2)nc1N1CCN(CCN2C3CCCC2CCC3)CC1 | < 1 µM
COc1c(Nc2ncc(C)s2)nc(Sc2ccc(NC(C)=O)cc2)nc1N1CCN(CCN(C)C)CC1 | < 1 µM
COc1c(Nc2cc(CC(=O)Nc3cccc(F)c3)[nH]n2)nc(SC)nc1N1CCN(CCN(C)C)CC1 | > 1 µM
CC(=O)Nc1ccc(Sc2nc(Nc3cc(C)[nH]n3)c(C)c(C3CCN(CCN(C)C)CC3)n2)cc1 | < 1 µM
COc1c(Nc2cc(C)[nH]n2)nc(Sc2ccc(S(C)(=O)=O)cc2)nc1N1CCN(CCN2CCN(C)CC2)CC1 | < 1 µM
COc1c(Nc2cc(C)[nH]n2)nc(Sc2ccc(NS(C)(=O)=O)cc2)nc1N1CCN(CCN(C)C)CC1 | < 1 µM
CCS(=O)(=O)c1ccc(Sc2nc(Nc3cc(C)[nH]n3)c(OC)c(N3CCN(CCN(C)C)CC3)n2)cc1 | < 1 µM
COc1c(Nc2cc(C)[nH]n2)nc(Sc2ccc(S(=O)(=O)C(F)(F)F)cc2)nc1N1CCN(CCN(C)C)CC1 | < 1 µM
COc1c(Nc2cc(C)[nH]n2)nc(Sc2ccc(S(=O)(=O)N(C)C)cc2)nc1N1CCN(CCN(C)C)CC1 | < 1 µM
CC(=O)Nc1ccc(Sc2nc(Nc3cc(C)[nH]n3)cc(C3CCN(CCN(C)C)CC3)n2)cc1 | 0.1 to 1 µM
COc1c(Nc2cc(C)[nH]n2)nc(Sc2ccc(S(=O)(=O)Cc3ccccc3)cc2)nc1N1CCN(CCN(C)C)CC1 | < 1 µM

SMILES | IC50
COc1c(Nc2cc(C)[nH]n2)nc(Sc2ccc(S(=O)(=O)COCc3ccccc3)cc2)nc1N1CCN(CCN(C)C)CC1 | < 1 µM
COc1c(Nc2nccs2)nc(Sc2ccc(NC(C)=O)cc2)nc1N1CCN(CCN(C)C)CC1 | 0.1 to 1 µM
COc1c(Nc2ncc(C)s2)nc(Sc2ccc(S(C)(=O)=O)cc2)nc1N1CCN(CCN(C)C)CC1 | < 1 µM
COc1c(Nc2cc(C)[nH]n2)nc(Sc2ccc(S(C)(=O)=O)cc2)nc1C1CCN(CCN(C)C)CC1 | 0.1 to 1 µM
COc1c(Nc2cc(C)[nH]n2)nc(Sc2ccc(NC(C)=O)cc2)nc1C1CCN(CCN2CCN(C)CC2)CC1 | < 1 µM
COc1c(Nc2cc(C)[nH]n2)nc(Sc2ccc(S(=O)(=O)CCO)cc2)nc1N1CCN(CCN(C)C)CC1 | < 1 µM
CCCS(=O)(=O)c1ccc(Sc2nc(Nc3cc(C)[nH]n3)c(OC)c(N3CCN(CCN(C)C)CC3)n2)cc1 | < 1 µM
CCS(=O)(=O)c1ccc(Sc2nc(Nc3cc(C)[nH]n3)c(OC)c(N3CCC(CCN(C)C)CC3)n2)cc1 | < 1 µM
COc1c(Nc2cc(C)[nH]n2)nc(Sc2ccc(S(=O)(=O)CC(C)C)cc2)nc1N1CCN(CCN(C)C)CC1 | < 1 µM
CCS(=O)(=O)c1ccc(Sc2nc(Nc3cc(C)[nH]n3)c(OC)c(N3CCN(CCN4CCN(C)CC4)CC3)n2)cc1 | < 1 µM
COc1c(Nc2cc(C)[nH]n2)nc(Sc2ccc(S(=O)(=O)C(C)C)cc2)nc1N1CCN(CCN(C)C)CC1 | < 1 µM
COc1c(Nc2cc(C)[nH]n2)nc(Sc2ccc(S(=O)(=O)Cc3ccc(F)cc3)cc2)nc1N1CCN(CCN(C)C)CC1 | < 1 µM
COc1ccc(CS(=O)(=O)c2ccc(Sc3nc(Nc4cc(C)[nH]n4)c(OC)c(N4CCN(CCN(C)C)CC4)n3)cc2)cc1 | < 1 µM
COc1c(Nc2cc(C)[nH]n2)nc(Sc2ccc(S(=O)(=O)Cc3ccccc3Cl)cc2)nc1N1CCN(CCN(C)C)CC1 | < 1 µM
COc1c(Nc2cc(C)[nH]n2)nc(Sc2ccc(S(=O)(=O)Cc3cccc(Cl)c3)cc2)nc1N1CCN(CCN(C)C)CC1 | < 1 µM
COc1c(Nc2cc(C)[nH]n2)nc(Sc2ccc(S(=O)(=O)Cc3ccncc3)cc2)nc1N1CCN(CCN(C)C)CC1 | < 1 µM
COc1c(Nc2cc(C)[nH]n2)nc(Sc2ccc(S(C)(=O)=O)cc2)nc1N1CCC(CCN(C)C)CC1 | < 1 µM
COc1c(Nc2cc(C)[nH]n2)nc(Sc2ccc(S(=O)(=O)Cc3ccccc3)cc2)nc1N1CCC(CCN(C)C)CC1 | < 1 µM
COc1c(Nc2cc(C)[nH]n2)nc(Sc2ccc(S(=O)(=O)Cc3ccccc3)cc2)nc1N1CCN(C)CC1 | < 1 µM
CCS(=O)(=O)c1ccc(Sc2nc(Nc3cc(C)[nH]n3)c(OC)c(N3CCN(C)CC3)n2)cc1 | < 1 µM
COc1c(Nc2cc(C)[nH]n2)nc(Sc2ccc(S(=O)(=O)Cc3cccnc3)cc2)nc1N1CCN(CCN(C)C)CC1 | < 1 µM
COc1c(Nc2cc(C)[nH]n2)nc(Sc2ccc(S(=O)(=O)Cc3ccc(Cl)cc3)cc2)nc1N1CCN(CCN(C)C)CC1 | < 1 µM
COc1c(Nc2cc(C)[nH]n2)nc(Sc2ccc(S(=O)(=O)Cc3ccccc3)cc2)nc1N1CCN(CCN2C3CCCC2CCC3)CC1 | < 1 µM
COc1c(Nc2cc(C)[nH]n2)nc(Sc2ccc(S(=O)(=O)Cc3cccs3)cc2)nc1N1CCN(CCN(C)C)CC1 | < 1 µM
CCS(=O)(=O)c1ccc(Sc2nc(Nc3cc(C)[nH]n3)c(OC)c(N3CCNCC3)n2)cc1 | < 1 µM

SMILES | IC50
COc1c(Nc2cc(C)[nH]n2)nc(Sc2ccc(S(=O)(=O)Cc3nccs3)cc2)nc1N1CCN(CCN(C)C)CC1 | < 1 µM
CCS(=O)(=O)c1ccc(Sc2nc(Nc3cc(C)[nH]n3)c(OC)c(C3CCN(CCN(C)C)CC3)n2)cc1 | < 1 µM
COc1c(Nc2cc(C)[nH]n2)nc(Sc2ccc(S(=O)(=O)Cc3ccccc3)cc2)nc1C1CCN(CCN(C)C)CC1 | < 1 µM
CCS(=O)(=O)c1ccc(Sc2nc(Nc3cc(C)[nH]n3)c(OC)c(N3CCC(CCN4C5CCCC4CCC5)CC3)n2)cc1 | < 1 µM
COc1c(Nc2cc(C)[nH]n2)nc(Sc2ccc(S(=O)(=O)Cc3ncc[nH]3)cc2)nc1N1CCN(CCN(C)C)CC1 | < 1 µM
CCS(=O)(=O)c1ccc(Sc2nc(C)c(OC)c(Nc3cc(C)[nH]n3)n2)cc1 | < 1 µM
COc1c(C)nc(Sc2ccc(S(=O)(=O)Cc3ccccc3)cc2)nc1Nc1cc(C)[nH]n1 | < 1 µM
COc1c(Nc2cc(C)[nH]n2)nc(Sc2ccc(S(=O)(=O)CCN(C)C)cc2)nc1N1CCN(CCN(C)C)CC1 | < 1 µM
COc1c(Nc2cc(C)[nH]n2)nc(Sc2ccc(S(=O)(=O)c3ccccc3)cc2)nc1N1CCN(CCN(C)C)CC1 | < 1 µM
COc1c(Nc2cc(C)[nH]n2)nc(Sc2ccc(S(=O)(=O)Cc3ncco3)cc2)nc1N1CCN(CCN(C)C)CC1 | < 1 µM
CCOc1c(Nc2cc(C)[nH]n2)nc(Sc2ccc(S(=O)(=O)CC)cc2)nc1N1CCN(CCN(C)C)CC1 | < 1 µM
CCOc1c(Nc2cc(C)[nH]n2)nc(Sc2ccc(S(=O)(=O)Cc3ccccc3)cc2)nc1N1CCN(CCN(C)C)CC1 | < 1 µM
COc1c(Nc2cc(C)[nH]n2)nc(Sc2ccc(S(=O)(=O)Cc3ccccc3)cc2)nc1N1CCOCC1 | < 1 µM
COc1c(Nc2cc(C)[nH]n2)nc(Sc2ccc(S(=O)(=O)Cc3ccccc3)cc2)nc1N(C)C | < 1 µM
COc1c(Nc2cc(C)[nH]n2)nc(Sc2ccc(S(=O)(=O)Cc3ccccc3)cc2)nc1N1CCCCC1 | < 1 µM
COc1c(Nc2cc(C)[nH]n2)nc(Sc2ccc(S(=O)(=O)Cc3ccccc3)cc2)nc1N1CCN(CCN2CCN(C)CC2)CC1 | < 1 µM
COc1c(Nc2cc(C)[nH]n2)nc(Sc2ccc(S(=O)(=O)Cc3ccccc3)cc2)nc1N1CCN(CCN2C3CCCC2CC3)CC1 | < 1 µM
Cc1cc(Nc2cc(N3CCN(CCN(C)C)CC3)nc(Sc3ccc(S(=O)(=O)Cc4ccccc4)cc3)n2)n[nH]1 | < 1 µM
COc1c(Nc2cc[nH]n2)nc(Sc2ccc(S(=O)(=O)Cc3ccccc3)cc2)nc1N1CCN(CCN(C)C)CC1 | < 1 µM
CCS(=O)(=O)c1ccc(Sc2nc(Nc3cc(C)[nH]n3)c(OC)c(N3CCCCC3)n2)cc1 | < 1 µM
CCS(=O)(=O)c1ccc(Sc2nc(Nc3cc(C)[nH]n3)c(OC)c(N3CCOCC3)n2)cc1 | < 1 µM
COc1c(Nc2cc(C)[nH]n2)nc(Sc2ccc(S(=O)(=O)Cc3cccc([N+](=O)[O-])c3)cc2)nc1N1CCN(CCN(C)C)CC1 | < 1 µM
COc1c(Nc2cc(C)[nH]n2)nc(Sc2ccc(S(=O)(=O)Cc3ccc([N+](=O)[O-])cc3)cc2)nc1N1CCN(CCN(C)C)CC1 | < 1 µM

— patent publication US10752612B2, “PLK4 inhibitors” (LUDWIG INSTITUTE FOR CANCER RESEARCH LTD, priority 2015, dated 2020)
